From US10941114B2, “Small molecule lipid II inhibitors” (University Of Maryland, Baltimore, priority 2015, dated 2021)
≈ marks a conversion by molar mass, not a printed value. Structures can show the parent of a compound that is named as a salt. Where two headings read alike, the source gives them in different places.

Assays:
[1] = Pharmacokinetic study in mice (plasma concentration by LC/MS/MS)
in vivo [2] = conditions: CD1, mouse, plasma, iv, 10 mg/kg
Staphylococcus aureus = experiment: Antibacterial activity assay (MIC, broth dilution); format: cell-based; set-up: S. aureus Killing / Bacterial Killing S. aureus: unit not given here; conditions: for MIC: Staphylococcus aureus
Enterococcus faecium = experiment: Antibacterial activity assay (MIC, broth dilution); format: cell-based; set-up: Bacterial Killing E. faecium: unit: ug/mL
Procedure: (§1) Determination of the Minimal Inhibitory Concentrations (MIC) by dilution was carried out by broth dilution according to CLSI standards. See CLSI, Methods for Dilution Antimicrobial Susceptibility Tests for Bacteria That Grow Aerobically; Approved Standard—Eighth Edition. 2009, the contents of which are hereby incorporated by reference. Briefly, the minimum inhibitory concentration MIC, is the lowest concentration of a compound that prevents visible growth of a bacterium, in other words at which it has bacteriostatic activity.
For these tests, cation-adjusted Mueller Hinton broth, containing 10% brain-heart infusion (BHI) was used. Concentrations (MIC) are given in μg/mL. The compound was […].
(§2) Compounds were tested for MIC by methods known in the art and described in CLSI, Methods for Dilution Antimicrobial Susceptibility Tests for Bacteria That Grow Aerobically; Approved Standard—Tenth Edition. CLSI document M07-A10. Wayne, Pa.: Clinical and Laboratory Standards Institute, 2015, which is hereby incorporated by reference for these methods.
(§3) Selected compounds also were tested by broth microdilution methods known in the art and described in CLSI, Methods for Dilution Antimicrobial Susceptibility Tests for Bacteria That Grow Aerobically; Approved Standard—Tenth Edition. CLSI document M07-A10. Wayne, Pa.: Clinical and Laboratory Standards Institute, 2015, which is hereby incorporated by reference. Structures of selected compounds in the tables are listed below.

in vivo [3] = conditions: both, ICR, mouse
[4] = in vivo, iv, 10 mg/kg
HeLa cells = experiment: Cytotoxicity testing (CC50, MTS assay); conditions: for CC50: HeLa cells
Escherichia coli = experiment: Antibacterial activity assay (MIC, broth dilution); format: cell-based
Acinetobacter baumannii = experiment: Antibacterial activity assay (MIC, broth dilution); format: cell-based; conditions: for MIC: Acinetobacter baumannii
Procedure: as §1, §2, §3

[5] = Cytotoxicity testing (CC50, MTS assay); conditions: human
[6] = Maximum Tolerated Dose (MTD) and in vivo toxicity at the MTD; conditions: dose-escalation; final MTD
[7] = Surface Plasmon Resonance determination of Lipid II binding; conditions: SPR; FIG. 16
Procedure: Short-chain water-soluble LII containing a lipid tail of three isoprene units (3-LII) was generated and purified essentially according to methods known in the art. See Breukink et al., Lipid II is an intrinsic component of the pore induced by nisin in bacterial membranes. J. Biol. Chem. 278(22):19898-19903, 2003, the contents of which are hereby incorporated by reference. Typically, M. flavus vesicles (120 μmol lipid-Pi) were incubated together with 500 μmol UDP-GlcNAc, 500 μmol UDP-MurNAC-pentapeptide and 400 μmol farnesyl phosphate in 100 mM Tris-HCl pH 8.0, 5 mM MgCl2. The incubation period was approximately two hours at room temperature for 3-LII (3-P). The synthesis of 3-Lipid II was followed by RP-8 reversed phase TLC (Merck™) developed with 75% methanol. For purification, the membranes were removed by centrifugation at 40,000×g; the supernatant was collected and loaded on a C18 HPLC column and eluted with a linear gradient from 50 mM ammonium bicarbonate to 100% methanol in 30 minutes. Farnesyl-Lipid II (3-Lipid II) eluted at approximately 60% methanol. Its identity was confirmed by mass spectroscopy.
Surface Plasmon Resonance binding experiments were carried out on a BIAcore T100 system (BIAcore™ Inc., Piscataway, N.Y.) at 25° C. The assay buffer was 10 mM HEPES, 150 mM NaCl, 0.05% surfactant P20, pH 7.4 (+3 mM EDTA) supplemented with 10% DMSO. 3-Lipid II (50 RUs) was immobilized on CMS sensor chips using the amine-coupling chemistry recommended by the manufacturer. For initial determination of binding, compounds were introduced into the flow-cells (30.mu·1/min) in the running buffer at 10 μM. Resonance signals were corrected for nonspecific binding by subtracting the background of the control flow-cell. Binding to immobilized 3-LII on the chip surface was determined and scored “yes” in Table 5 when more than 20 Resonance Units or RUs were detected. Detection of less than 20 RUs was scored as “no”, meaning no significant binding to LII. After each analysis, the sensor chip surfaces were regenerated with 50 mM NaOH for 30 seconds at a flow rate 100 μL/min, and equilibrated with the buffer prior to next injection. For binding kinetics studies, binding isotherms were analyzed with manufacturer-supplied software for BIAcore™ T100.

Streptococcus pneumoniae = experiment: Antibacterial activity assay (MIC, broth dilution); format: cell-based
Enterococcus faecalis = experiment: Antibacterial activity assay (MIC, broth dilution); format: cell-based
Pseudomonas aeruginosa = experiment: Antibacterial activity assay (MIC, broth dilution); format: cell-based; conditions: MMX#-ATCC# 103-27853
[8] = Liver microsome stability testing; format: in vitro ADME; conditions: positive control; human liver microsomes
Procedure: The in vitro microsome stability assay was performed using human liver microsomes and a Biomek FXP™ liquid handling workstation to deliver reagents to a deep 96-well plate on a shaking peltier with temperature controls. Human liver microsomes were purchased from Corning™. The test compound was incubated in an aqueous reaction mixture (200 μL total volume) consisting of human liver microsomes (150 mixed donor pool) and NADPH Regenerating System Solutions A and B (Corning™) in the presence of 100 mM potassium phosphate buffer (pH 7.4). NADPH Regenerating System Solution A comprises nicotinamide adenine dinucleotide phosphate (NADP+) and glucose 6-phosphate; NADPH Regenerating System Solution B contains glucose-6-phosphate dehydrogenase. Solutions A and B were combined prior to adding to the reaction plate to generate a supply of NADPH. The NADPH was added last to initiate the reactions simultaneously. The final concentration of the test compound was 10 μM and the microsomal protein concentration was 0.5 mg/mL. […]
The half-life (t½) was calculated using the following equation:
[formula] where “slope” is the slope of the line formed by ln(% remaining test compound) vs. time. The in vitro intrinsic clearance (CLint) was calculated using equation: […]

[9] = determined as in Example 1E (MIC)
[10] = S. aureus USA300 (MRSA), average of two replicates, read-out: MIC SA
[11] = Table 16, CLSI M07-A10 dilution method, read-out: MIC S. aureus
[12] = ATCC 1509 / VRE, text: E. faecium EF1509 (VRE), footnote: Enterococcus faecalis ATCC 1509, average of two replicates, read-out: MIC EF
[13] = Enterococcus faecium, Table 16, CLSI M07-A10 dilution method, read-out: MIC E. faecium
[14] = A. baumannii 2-2-2 (colistin-resistant clinical isolate), average of two replicates, read-out: MIC AB
[15] = Table 16, CLSI M07-A10 dilution method, read-out: MIC A. baumannii
[16] = single dose of 10 mg/kg by intravenous injection in CD1 mice (n=3)
[17] = S. aureus USA300 (MRSA), average of two replicates
[18] = A. baumannii 2-2-2 (colistin-resistant clinical isolate), average of two replicates

CN(C)c1ccc(/C=C/c2cc(-c3ccc(F)cc3)cc(-c3ccc(F)cc3)[o+]2)cc1 [Compound 7jc47-1, (E)-2-(4-(dimethylamino)styryl)-4,6-bis(4-fluorophenyl) pyrylium boron tetrafluoride salt]
T1/2 ([1]; mouse, in vivo, iv, 10 mg/kg): 6.81 ± 1.33 h | AUC(0-inf) (in vivo [2]): 578 ± 175 ng·h/mL | Cmax (in vivo [2]): 3220 ± 1500 ng/mL | MRT (in vivo [2]): 1.74 ± 0.49 h | Vd (in vivo [2]): 46.3 ± 12.9 L/kg | half-life (in vivo [2]): ~7 h | Bacterial Killing S. aureus (Staphylococcus aureus; [9]): 1 | Bacterial Killing E. faecium (Enterococcus faecium; [9]): 1 | MTD at 72 h (in vivo [3]): 60 mg/kg | AUCextrap ([4]; CD1, mouse): 2.25 ± 1.13% | Cl3 ([4]; CD1, mouse): 23.6 ± 1.7 mL/min/kg | cytotoxicity in vitro (HeLa cells): no observable cytotoxicity in vitro | Bacterial Killing E. coli (Escherichia coli; [9]): >64

Cc1ccc(-c2cc(-c3ccc(Cl)cc3)cc(/C=C/c3ccc(N(C)CCO)cc3)[n+]2C)cc1.[I-] [Compound 9p, (E)-4-(4-chlorophenyl)-2-(4-((2-hydroxyethyl)(methyl)amino)styryl)-1-methyl-6-(p-tolyl)pyridin-1-ium iodide]
MIC (Staphylococcus aureus; [10]): 0.25 µg/mL | MIC (Staphylococcus aureus; [11]): 0.25 µg/mL | MIC (Enterococcus faecium; [12]): 2 µg/mL | MIC (Enterococcus faecium; [13]): 2 µg/mL | MIC (Acinetobacter baumannii; [14]): 16 µg/mL | MIC (Acinetobacter baumannii; [15]): 16 µg/mL | CC50 at 24 h ([5]; HeLa cells): 5.5 µg/mL

Cc1ccc(-c2cc(-c3ccc(Br)cc3)cc(/C=C/c3ccc(N(C)C)cc3)[n+]2C)c(C)c1.[I-] [Compound 9s, (E)-4-(4-bromophenyl)-2-(4-(dimethylamino)styryl)-6-(2,4-dimethylphenyl)-1-methylpyridin-1-ium iodide]
MIC (Staphylococcus aureus; [10]): 0.25 µg/mL | MIC (Staphylococcus aureus; [11]): 0.25 µg/mL | MIC (Enterococcus faecium; [12]): 1 µg/mL | MIC (Enterococcus faecium; [13]): 1 µg/mL | MIC (Acinetobacter baumannii; [14]): 16 µg/mL | MIC (Acinetobacter baumannii; [15]): 16 µg/mL | CC50 at 24 h [5]: 3.5 µg/mL

CCN(CC)c1ccc(/C=C/c2cc(-c3ccc(Br)cc3)cc(-c3ccc(C)c(C)c3)[n+]2C)cc1.[I-] [Compound 9v, (E)-4-(4-bromophenyl)-2-(4-(diethylamino)styryl)-6-(3,4-dimethylphenyl)-1-methylpyridin-1-ium iodide]
MIC (Staphylococcus aureus; [10]): 2 µg/mL | MIC (Staphylococcus aureus; [11]): 2 µg/mL | MIC (Enterococcus faecium; [12]): 4 µg/mL | MIC (Enterococcus faecium; [13]): 4 µg/mL | MIC (Acinetobacter baumannii; [14]): 4 µg/mL | MIC (Acinetobacter baumannii; [15]): 4 µg/mL | CC50 at 24 h ([5]; HeLa cells): 5.5 µg/mL

CN(CCC#N)c1ccc(/C=C/c2cc(-c3ccc(Br)cc3)cc(-c3ccc(Br)cc3)[n+]2C)cc1.[I-] [Compound 12c]
AUCInf [1, 16]: 2137 ± 455 ng·h/mL | AUCextrap [1, 16]: 12.9 ± 5.6% | Cl3 [1, 16]: 80.3 ± 16.6 mL/min/kg | Cmax [1, 16]: 3975 ± 739 ng/mL | MRT [1, 16]: 9.13 ± 3.17 h | T1/2 [1, 16]: 11 ± 2.37 h | Vss—obs [1, 16]: 46.3 ± 23.3 L/kg | Maximum Tolerated Dose (MTD) [6]: 40 mg/kg

CC(C)C[n+]1c(/C=C/c2ccc(N(C)C)cc2)cc(-c2ccc(Br)cc2)cc1-c1ccc(Br)cc1.[I-] [EL-1]
MIC SA (Staphylococcus aureus; [17]): 0.5 µg/mL | MIC EF (Enterococcus faecium; E. faecium EF1509 (VRE), average of two replicates): 1 µg/mL | Lipid II binding affinity [7]: below micromolar | Maximum Tolerated Dose (MTD) [6]: 25 mg/kg | MIC AB (Acinetobacter baumannii; [18]): 4 µg/mL | AUCInf ([4]; mouse): 1528 ± 286 ng·h/mL | AUCextrap ([4]; mouse): 5.15 ± 1.28% | Cl3 ([4]; mouse): 111 ± 20 mL/min/kg | Cl—obs ([4]; mouse): 111 ± 20 mL/min/kg | MRT ([4]; mouse): 4.42 ± 0.72 h | T1/2 ([4]; mouse): 8.33 ± 0.84 h | CC50 (HeLa cells; exposure 24 hour): 5 µg/mL

Cc1ccc(/C=C/c2cc(-c3ccc(Br)cc3)cc(-c3ccc(Br)cc3)[n+]2C)cc1.[I-] [EL-11]
AUCextrap ([1]; single dose of 10 mg/kg by intravenous injection): 12.9 ± 5.6% | AUClast/D ([1]; single dose of 10 mg/kg by intravenous injection, AUClast/D): 185.3 ± 37.3 ng·h/mL | MIC SA (Staphylococcus aureus; [17]): 1 µg/mL | MIC EF (Enterococcus faecium; text: E. faecium EF1509 (VRE), footnote: Enterococcus faecalis ATCC 1509, average of two replicates): 4 µg/mL | Lipid II binding affinity [7]: below micromolar | MIC AB (Acinetobacter baumannii; [18]): >64 µg/mL | AUCInf ([4]; mouse): 2137 ± 455 ng·h/mL | AUClast/D ([4]; mouse): 1853 ± 372 mg·h/mL | Cl—obs ([4]; mouse): 80.3 ± 16.6 mL/min/kg | MRT ([4]; mouse): 9.13 ± 3.17 h | T1/2 ([4]; mouse): 11 ± 2.37 h | CC50 (HeLa cells; exposure 24 hours): 5 µg/mL

CC(=O)NC[C@H]1CN(c2ccc(N3CCOCC3)c(F)c2)C(=O)O1 [Linezolid, linezolid, reference compound]
MIC Staphylococcus aureus (Staphylococcus aureus; MMX#-ATCC# 100-29213): 4 µg/mL (≈ 11.9 µM) | MIC Staphylococcus aureus (MRSA) (Staphylococcus aureus; MMX#-ATCC# 757-NA, methicillin-resistant): 4 µg/mL (≈ 11.9 µM) | MIC Streptococcus pneumoniae (PRSP) (Streptococcus pneumoniae; MMX#-ATCC# 884-NA, penicillin-resistant): 2 µg/mL (≈ 5.93 µM) | MIC Streptococcus pneumoniae (Streptococcus pneumoniae; MMX#-ATCC# 1195-49619): 2 µg/mL (≈ 5.93 µM) | MIC Enterococcus faecalis (Enterococcus faecalis; MMX#-ATCC# 101-29212): 2 µg/mL (≈ 5.93 µM) | MIC Enterococcus faecalis (VRE) (Enterococcus faecalis; MMX#-ATCC# 848-NA, vancomycin-resistant): 2 µg/mL (≈ 5.93 µM) | MIC Escherichia coli (Escherichia coli; MMX#-ATCC# 102.25922): > 64 µg/mL | MIC Pseudomonas aeruginosa (Pseudomonas aeruginosa): > 64 µg/mL

COc1ccc2c(c1)[C@]13CCCC[C@@H]1[C@H](C2)N(C)CC3 [dextromethorphan]
intrinsic clearance [8]: 31 µL/min/mg
